Laboratory results published in PMC10763615, “Identification and engineering of potent cyclic peptides with selective or promiscuous binding through biochemical profiling and bioinformatic data analysis” (RSC Chemical Biology, 2023).
Like-named read-outs stand apart in the source and are kept apart here. Positions of bridges follow the written chain, without caps; N, C: chain ends. Residues, ends and D or L forms follow the SMILES beside them.

Key:
Type in all cases: binding
FGF-R3C ECD = molecular target: T1, FGF-R3C ECD (Homo sapiens, UniProt P22607); assay: biochemical; parameters: DNA constructs for the extracellular domain (ECD) of human FGF-; HPC4 (C); made in house; host or cells: HEK 293-6E
T1 sequence (P22607 23-375 limits assumed): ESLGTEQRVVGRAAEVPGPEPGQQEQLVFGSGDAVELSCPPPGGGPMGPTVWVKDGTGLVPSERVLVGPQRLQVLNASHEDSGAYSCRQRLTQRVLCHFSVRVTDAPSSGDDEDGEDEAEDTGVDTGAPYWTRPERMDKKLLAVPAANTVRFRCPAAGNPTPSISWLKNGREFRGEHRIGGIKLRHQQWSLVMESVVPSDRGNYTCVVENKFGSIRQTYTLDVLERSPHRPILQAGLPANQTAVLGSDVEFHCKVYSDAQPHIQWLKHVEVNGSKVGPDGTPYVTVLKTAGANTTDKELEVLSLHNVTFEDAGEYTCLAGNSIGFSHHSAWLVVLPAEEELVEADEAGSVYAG
Summary of the method: (§1)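 BLI, streptavidin sensors loaded with biotinylated receptor ECD. Single-point: ~1 μM crude peptide, PBS pH7.4/0.05% Tween-20/0.01% BSA; association then dissociation in buffer. KD corrected for UPLC-CAD-determined concentration.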

FGF-R1C ECD = molecular target: T2, FGF-R1C ECD (Homo sapiens, UniProt P11362); assay: biochemical; parameters: DNA constructs for the extracellular domain (ECD) of human FGF-; HPC4 (C); made in house; host or cells: HEK 293-6E
T2 sequence (P11362 22-376 limits assumed): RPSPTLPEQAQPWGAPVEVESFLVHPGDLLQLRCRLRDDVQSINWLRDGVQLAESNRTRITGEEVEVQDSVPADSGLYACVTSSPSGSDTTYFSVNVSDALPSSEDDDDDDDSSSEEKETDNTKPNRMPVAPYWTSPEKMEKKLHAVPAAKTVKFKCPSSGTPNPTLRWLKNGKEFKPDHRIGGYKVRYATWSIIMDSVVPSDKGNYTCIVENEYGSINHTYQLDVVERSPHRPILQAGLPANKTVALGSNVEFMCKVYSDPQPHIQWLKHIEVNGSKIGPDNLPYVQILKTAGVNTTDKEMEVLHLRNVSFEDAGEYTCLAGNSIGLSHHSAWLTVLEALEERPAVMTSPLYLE
Summary of the method: as §1

FGF-R4 ECD = molecular target: T3, FGF-R4 ECD (Homo sapiens, UniProt P22455); assay: single concentration BLI of crude peptides
T3 construct: DNA constructs for the extracellular domain (ECD) of human FGF-; HPC4 (C); made in house; host or cells: HEK 293-6E
T3 sequence (P22455 22-369 limits assumed): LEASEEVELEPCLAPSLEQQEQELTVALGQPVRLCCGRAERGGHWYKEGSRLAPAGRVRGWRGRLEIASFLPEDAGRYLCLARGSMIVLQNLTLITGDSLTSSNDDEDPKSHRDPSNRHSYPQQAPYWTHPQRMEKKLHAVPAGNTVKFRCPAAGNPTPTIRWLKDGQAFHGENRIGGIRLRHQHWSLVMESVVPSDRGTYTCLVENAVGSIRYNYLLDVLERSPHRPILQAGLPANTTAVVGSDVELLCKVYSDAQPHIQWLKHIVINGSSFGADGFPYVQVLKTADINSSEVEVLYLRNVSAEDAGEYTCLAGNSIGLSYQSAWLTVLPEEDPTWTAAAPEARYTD
Summary of the method: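 Biotinylated FGF-R ECD on streptavidin biosensors was dipped into ~1 μM crude peptide in PBS pH7.4 with 0.05% Tween-20 and 0.01% BSA for association, then into buffer for dissociation, and followed by BLI. Fitted KD values were adjusted for peptide concentration measured by UPLC-CAD.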

[1] = crude T18 selection 1 (1:1:1) peptides, single concentration BLI (Table S4), read-out: KD (4)

| SMILES | Kd (FGF-R3C ECD) [µM] | Kd (FGF-R1C ECD) [µM] | Kd (FGF-R4 ECD; [1]) [nM] | Kd (FGF-R4 ECD) [nM] | Kd (FGF-R4 ECD; crude NNK peptides, single concentration BLI (Table S3), read-out: KD (4)) [nM] |
| --- | --- | --- | --- | --- | --- |
| CC[C@H](C)[C@@H]1NC(=O)[C@H](Cc2c[nH]c3ccccc23)NC(=O)[C@H]([C@@H](C)CC)NC(=O)[C@H](CO)NC(=O)[C@@H]2CCCN2C(=O)[C@H](Cc2c[nH]cn2)NC(=O)[C@H](CO)NC(=O)[C@H](Cc2c[nH]c3ccccc23)NC(=O)[C@H](Cc2c[nH]c3ccccc23)NC(=O)[C@H](C(C)C)NC(=O)[C@@H](NC(=O)[C@H](CCSC)NC(C)=O)CSSC[C@@H](C(=O)NCC(=O)N[C@@H](CO)C(=O)NCC(=O)N[C@@H](CO)C(=O)N[C@@H](CC(=O)O)C(=O)N[C@@H](Cc2ccc(O)cc2)C(=O)N[C@@H](CCCCN)C(=O)N[C@@H](CC(=O)O)C(=O)N[C@@H](CC(=O)O)C(=O)N[C@@H](CC(=O)O)C(=O)N[C@@H](CC(=O)O)C(=O)N[C@@H](CCCCN)C(N)=O)NC1=O (Ac-MCVWWSHPSIWICGSGSDYKDDDDK-NH2; disulfide 2-13) | > 10 | 0.065 | > 10000 |  |  |
| CC[C@H](C)[C@@H]1NC(=O)[C@H](CC(C)C)NC(=O)[C@H](CCCCN)NC(=O)[C@H](CO)NC(=O)[C@H](Cc2c[nH]c3ccccc23)NC(=O)[C@@H](NC(=O)[C@H](CCSC)NC(C)=O)CSSC[C@@H](C(=O)NCC(=O)N[C@@H](CO)C(=O)NCC(=O)N[C@@H](CO)C(=O)N[C@@H](CC(=O)O)C(=O)N[C@@H](Cc2ccc(O)cc2)C(=O)N[C@@H](CCCCN)C(=O)N[C@@H](CC(=O)O)C(=O)N[C@@H](CC(=O)O)C(=O)N[C@@H](CC(=O)O)C(=O)N[C@@H](CC(=O)O)C(=O)N[C@@H](CCCCN)C(N)=O)NC(=O)[C@H](CCC(N)=O)NC(=O)[C@H](CO)NC(=O)[C@H](CC(C)C)NC(=O)[C@H](Cc2ccc(O)cc2)NC(=O)[C@H](Cc2ccc(O)cc2)NC(=O)[C@H](CCCCN)NC(=O)[C@H]([C@@H](C)CC)NC1=O (Ac-MCWSKLIIKYYLSQCGSGSDYKDDDDK-NH2; disulfide 2-15) | > 10 | > 10 |  | 16 |  |
| CSCC[C@H](NC(C)=O)C(=O)N[C@H]1CSSC[C@@H](C(=O)NCC(=O)N[C@@H](CO)C(=O)NCC(=O)N[C@@H](CO)C(=O)N[C@@H](CC(=O)O)C(=O)N[C@@H](Cc2ccc(O)cc2)C(=O)N[C@@H](CCCCN)C(=O)N[C@@H](CC(=O)O)C(=O)N[C@@H](CC(=O)O)C(=O)N[C@@H](CC(=O)O)C(=O)N[C@@H](CC(=O)O)C(=O)N[C@@H](CCCCN)C(N)=O)NC(=O)[C@H](CCC(N)=O)NC(=O)[C@H](CCCCN)NC(=O)[C@H](Cc2ccc(O)cc2)NC(=O)[C@H](C(C)C)NC(=O)[C@H]([C@@H](C)O)NC(=O)[C@H](Cc2c[nH]c3ccccc23)NC(=O)[C@H](Cc2ccc(O)cc2)NC(=O)[C@H](CCCCN)NC(=O)[C@H](C(C)C)NC(=O)[C@H](Cc2c[nH]c3ccccc23)NC1=O (Ac-MCWVKYWTVYKQCGSGSDYKDDDDK-NH2; disulfide 2-13) | > 10 | > 10 |  |  | 207 |
| CSCC[C@H](NC(C)=O)C(=O)N[C@H]1CSSC[C@@H](C(=O)NCC(=O)N[C@@H](CO)C(=O)NCC(=O)N[C@@H](CO)C(=O)N[C@@H](CC(=O)O)C(=O)N[C@@H](Cc2ccc(O)cc2)C(=O)N[C@@H](CCCCN)C(=O)N[C@@H](CC(=O)O)C(=O)N[C@@H](CC(=O)O)C(=O)N[C@@H](CC(=O)O)C(=O)N[C@@H](CC(=O)O)C(=O)N[C@@H](CCCCN)C(N)=O)NC(=O)[C@H](C(C)C)NC(=O)[C@H](CCCCN)NC(=O)[C@H](Cc2ccccc2)NC(=O)[C@H](Cc2c[nH]c3ccccc23)NC(=O)[C@H](Cc2ccccc2)NC(=O)[C@H](CCC(=O)O)NC(=O)[C@H](Cc2c[nH]cn2)NC(=O)[C@H](CCC(N)=O)NC(=O)[C@H](CCCCN)NC(=O)[C@H](Cc2ccccc2)NC(=O)[C@H](Cc2c[nH]c3ccccc23)NC(=O)[C@H](Cc2c[nH]c3ccccc23)NC1=O (Ac-MCWWFKQHEFWFKVCGSGSDYKDDDDK-NH2; disulfide 2-15) | > 10 | > 10 | 2 |  |  |
